Laboratory results as given in patent publication US10294202B2, “Pyrrolidinones as herbicides” (FMC Corporation, priority 2013, dated 2019).

Experiments:
wheat (winter wheat) = assay: Test C pre-/postemergence herbicide test; assay type: in vivo, Triticum aestivum; conditions: for Plant response rating, Wheat: Postemergence
Procedure, shortened: (§1)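 Compound solutions contained surfactant in a non-phytotoxic solvent. These were sprayed onto pots of loam/sand sown with seeds, and onto young plants (2 to 18 cm, 1- to 4-leaf) in sphagnum peat–vermiculite mix. Visual injury scores (0 none, 100 complete control) were recorded after 13 to 15 days.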

oat, wild = assay: Test C pre-/postemergence herbicide test; assay type: in vivo, Avena fatua; conditions: Postemergence
Procedure, shortened: as §1

velvetleaf = assay: Test C pre-/postemergence herbicide test; assay type: in vivo, Abutilon theophrasti
Procedure, shortened: as §1

blackgrass = assay: Test C pre-/postemergence herbicide test; assay type: in vivo, Alopecurus myosuroides
Procedure, shortened: as §1

foxtail, giant = assay: Test C pre-/postemergence herbicide test; assay type: in vivo, Setaria faberii
Procedure, shortened: as §1

crabgrass, large = assay: Test C pre-/postemergence herbicide test; assay type: in vivo, Digitaria sanguinalis
Procedure, shortened: as §1

soybean = assay: Test C pre-/postemergence herbicide test; assay type: in vivo, Glycine max
Procedure, shortened: as §1

pigweed = assay: Test C pre-/postemergence herbicide test; assay type: in vivo, Amaranthus retroflexus
Procedure, shortened: as §1

barnyardgrass [1] = assay: Test C pre-/postemergence herbicide test; assay type: in vivo, Echinochloa crus-galli
Procedure, shortened: as §1

oilseed rape = assay: Test C pre-/postemergence herbicide test; assay type: in vivo, Brassica napus
Procedure, shortened: as §1

barnyardgrass [2] = assay: Test A pre-/postemergence herbicide test; assay type: in vivo, Echinochloa crus-galli
Procedure, shortened: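 Formulated compound (non-phytotoxic solvent, surfactant) sprayed pre- onto soil of seeded loam/sand pots or post- onto seedlings at 1–2 leaves; ~10 d greenhouse; 0–100 visual control rating versus untreated.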

galium = assay: Test C pre-/postemergence herbicide test; assay type: in vivo, Galium aparine; conditions: Preemergence
Procedure, shortened: as §1

[3] = 31 g ai/ha, scale 0 to 100 (0 no effect, 100 complete control)
[4] = 62 g ai/ha, scale 0 (no effect) to 100 (complete control)
[5] = 125 g ai/ha, scale 0 to 100 (0 no effect, 100 complete control)
[6] = 250 g ai/ha, scale 0 to 100 (0 no effect, 100 complete control)
[7] = Preemergence, 31 g ai/ha, scale 0 to 100, 0 is no effect and 100 is complete control
[8] = Preemergence, 62 g ai/ha, scale 0 to 100 (0 no effect, 100 complete control)
[9] = Postemergence, 31 g ai/ha, scale 0 to 100 (0 no effect, 100 complete control)
[10] = Postemergence, 62 g ai/ha, scale 0 (no effect) to 100 (complete control)
[11] = Postemergence, 125 g ai/ha, scale 0 to 100 (0 no effect, 100 complete control)
[12] = Postemergence, 250 g ai/ha, scale 0 to 100 (0 no effect, 100 complete control)
[13] = Preemergence, 125 g ai/ha, scale 0 to 100 (0 no effect, 100 complete control)

## CN1CC(c2cccc(C(F)(F)F)c2)C(C(=O)Nc2cccc(F)c2F)C1=O (centres unmarked) [Compound 305]
Wheat (winter wheat); [3]
  Plant response rating, Wheat: 0
Wheat (winter wheat); [4]
  Plant response rating, Wheat: 0
Wheat (winter wheat); [5]
  Plant response rating, Wheat: 0
Wheat (winter wheat); [6]
  Plant response rating, Wheat: 5
Wheat (winter wheat); [7]
  Wheat plant response rating: 45
Wheat (winter wheat); [8]
  Wheat plant response rating: 90
Wheat (winter wheat); Preemergence, 250 g ai/ha
  Plant response rating (scale of 0 to 100), Wheat: 90
oat, wild; [3]
  Plant response rating, Oat, Wild: 0
oat, wild; [4]
  Plant response rating, Oat, Wild: 0
oat, wild; [5]
  Plant response rating, Oat, Wild: 0
oat, wild; [6]
  Plant response rating, Oat, Wild: 30
velvetleaf; [9]
  Plant response rating, Velvetleaf: 10
velvetleaf; [10]
  Plant response rating, Velvetleaf: 40
velvetleaf; [11]
  Plant response rating, Velvetleaf: 40
velvetleaf; [12]
  Plant response rating, Velvetleaf: 65
velvetleaf; [7]
  Velvetleaf plant response rating: 25
velvetleaf; [8]
  Velvetleaf plant response rating: 30
velvetleaf; [13]
  Plant response rating, Velvetleaf: 55
velvetleaf; Preemergence, 250 g ai/ha
  Plant response rating (scale of 0 to 100), Velvetleaf: 55
blackgrass; [9]
  Plant response rating, Blackgrass: 0
blackgrass; [10]
  Plant response rating, Blackgrass: 0
blackgrass; [11]
  Plant response rating, Blackgrass: 30
blackgrass; [12]
  Plant response rating, Blackgrass: 10
blackgrass; [7]
  Blackgrass plant response rating: 60
blackgrass; [8]
  Blackgrass plant response rating: 75
blackgrass; [13]
  Plant response rating, Blackgrass: 70
blackgrass; Preemergence, 250 g ai/ha
  Plant response rating (scale of 0 to 100), Blackgrass: 90
foxtail, giant; [9]
  Plant response rating, Foxtail, Giant: 0
foxtail, giant; [10]
  Plant response rating, Foxtail, Giant: 65
foxtail, giant; [11]
  Plant response rating, Foxtail, Giant: 85
foxtail, giant; [12]
  Plant response rating, Foxtail, Giant: 90
foxtail, giant; [7]
  Foxtail, Giant plant response rating: 95
foxtail, giant; [8]
  Foxtail, Giant plant response rating: 95
foxtail, giant; [13]
  Plant response rating, Foxtail, Giant: 95
foxtail, giant; Preemergence, 250 g ai/ha
  Plant response rating (scale of 0 to 100), Foxtail, Giant: 95
crabgrass, large; [9]
  Plant response rating, Crabgrass, Large: 40
crabgrass, large; [10]
  Plant response rating, Crabgrass, Large: 55
crabgrass, large; [11]
  Plant response rating, Crabgrass, Large: 75
crabgrass, large; [12]
  Plant response rating, Crabgrass, Large: 80
crabgrass, large; [7]
  Crabgrass, Large plant response rating: 95
crabgrass, large; [8]
  Crabgrass, Large plant response rating: 95
crabgrass, large; [13]
  Plant response rating, Crabgrass, Large: 90
crabgrass, large; Preemergence, 250 g ai/ha
  Plant response rating (scale of 0 to 100), Crabgrass, Large: 95
soybean; [9]
  Plant response rating, Soybean: 10
soybean; [10]
  Plant response rating, Soybean: 0
soybean; [11]
  Plant response rating, Soybean: 0
soybean; [12]
  Plant response rating, Soybean: 0
soybean; [7]
  Soybean plant response rating: 0
soybean; [8]
  Soybean plant response rating: 0
soybean; [13]
  Plant response rating, Soybean: 0
soybean; Preemergence, 250 g ai/ha
  Plant response rating (scale of 0 to 100), Soybean: 0
pigweed; [9]
  Plant response rating, Pigweed: 55
pigweed; [10]
  Plant response rating, Pigweed: 60
pigweed; [11]
  Plant response rating, Pigweed: 65
pigweed; [12]
  Plant response rating, Pigweed: 65
pigweed; [7]
  Pigweed plant response rating: 10
pigweed; [8]
  Pigweed plant response rating: 70
pigweed; [13]
  Plant response rating, Pigweed: 80
pigweed; Preemergence, 250 g ai/ha
  Plant response rating (scale of 0 to 100), Pigweed: 85
Barnyardgrass [1]; [9]
  Plant response rating, Barnyardgrass: 20
Barnyardgrass [1]; [10]
  Plant response rating, Barnyardgrass: 55
Barnyardgrass [1]; [11]
  Plant response rating, Barnyardgrass: 70
Barnyardgrass [1]; [12]
  Plant response rating, Barnyardgrass: 80
Barnyardgrass [1]; [7]
  Barnyardgrass plant response rating: 90
Barnyardgrass [1]; [8]
  Barnyardgrass plant response rating: 95
Barnyardgrass [1]; [13]
  Plant response rating, Barnyardgrass: 95
Barnyardgrass [1]; Preemergence, 250 g ai/ha
  Plant response rating (scale of 0 to 100; 0 is no effect, 100 is complete control), Barnyardgrass: 98
Oilseed rape; [9]
  Plant response rating, Oilseed Rape: 0
Oilseed rape; [10]
  Plant response rating, Oilseed Rape: 0
Oilseed rape; [11]
  Plant response rating, Oilseed Rape: 0
Oilseed rape; [12]
  Plant response rating, Oilseed Rape: 0
Oilseed rape; [7]
  Oilseed Rape plant response rating: 20
Oilseed rape; [8]
  Oilseed Rape plant response rating: 60
Oilseed rape; [13]
  Plant response rating, Oilseed Rape: 80
Oilseed rape; Preemergence, 250 g ai/ha
  Plant response rating (scale of 0 to 100), Oilseed Rape: 90
Barnyardgrass [2]; Postemergence, 125 g ai/ha, visual rating on 0 to 100 scale (0 no effect, 100 complete control), approx. 10 days
  Plant response rating, Barnyardgrass: 80
Barnyardgrass [2]; Postemergence, 500 g ai/ha, 0 to 100 scale (0 no effect, 100 complete control)
  Plant response rating, Barnyardgrass: 90
Barnyardgrass [2]; Preemergence, 125 g ai/ha, 0 to 100 scale where 0 is no effect and 100 is complete control
  Plant response rating, Barnyardgrass: 80
Barnyardgrass [2]; Preemergence, 500 g ai/ha, visual rating on 0 to 100 scale (0 no effect, 100 complete control)
  Barnyardgrass plant response rating: 90
galium; 31 g ai/ha, scale 0 to 100, 0 is no effect and 100 is complete control
  Galium plant response rating: 80
galium; 62 g ai/ha, scale 0 to 100 (0 no effect, 100 complete control)
  Galium plant response rating: 80
galium; [5]
  Plant response rating, Galium: 90
galium; 250 g ai/ha
  Plant response rating (scale of 0 to 100), Galium: 90
